Assay results taken from PubChem BioAssay (NCI).
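Five compound concentrations were applied to cells in 96-well plates for 48 hours; endpoints were derived by simple linear interpolation of the resulting dose-response curve. GI50 = concentration required for 50% inhibition of growth. Definition used: TGI = concentration required for complete inhibition of growth.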

Legend:
Test in all cases: growth of human tumour cells (NCI), 48 h
NCI-H522 lung = test system: NCI-H522 lung
SK-MEL-2 melanoma = test system: SK-MEL-2 melanoma
SNB-75 CNS = test system: SNB-75 CNS
CAKI-1 renal = test system: CAKI-1 renal
HOP-92 NSCLC = test system: HOP-92 NSCLC
HT29 colon = test system: HT29 colon
RPMI-8226 leukemia = test system: RPMI-8226 leukemia
KM12 colon = test system: KM12 colon
UACC-257 melanoma = test system: UACC-257 melanoma
OVCAR-4 ovarian = test system: OVCAR-4 ovarian
CCRF-CEM leukemia = test system: CCRF-CEM leukemia
NCI-H460 lung = test system: NCI-H460 lung
NCI/ADR-RES ovarian = test system: NCI/ADR-RES ovarian
HS 578T breast = test system: HS 578T breast
NCI-H23 lung = test system: NCI-H23 lung
U251 CNS = test system: U251 CNS
OVCAR-3 ovarian = test system: OVCAR-3 ovarian
SF-268 CNS = test system: SF-268 CNS
A549 NSCLC = test system: A549 NSCLC
PC-3 prostate = test system: PC-3 prostate
SR leukemia = test system: SR leukemia
SK-MEL-28 melanoma = test system: SK-MEL-28 melanoma
K-562 leukemia = test system: K-562 leukemia
BT-549 breast = test system: BT-549 breast
M14 melanoma = test system: M14 melanoma
ACHN renal = test system: ACHN renal
T-47D breast = test system: T-47D breast
SW-620 colon = test system: SW-620 colon
SK-MEL-5 melanoma = test system: SK-MEL-5 melanoma
IGROV1 ovarian = test system: IGROV1 ovarian
HOP-62 NSCLC = test system: HOP-62 NSCLC
786-0 renal = test system: 786-0 renal
NCI-H226 lung = test system: NCI-H226 lung
UO-31 renal = test system: UO-31 renal
UACC-62 melanoma = test system: UACC-62 melanoma
MDA-MB-468 breast = test system: MDA-MB-468 breast
HCT-116 colon = test system: HCT-116 colon
SF-295 CNS = test system: SF-295 CNS
HCT-15 colon = test system: HCT-15 colon
OVCAR-8 ovarian = test system: OVCAR-8 ovarian
OVCAR-5 ovarian = test system: OVCAR-5 ovarian
SK-OV-3 ovarian = test system: SK-OV-3 ovarian
LOX IMVI melanoma = test system: LOX IMVI melanoma
MOLT-4 leukemia = test system: MOLT-4 leukemia
MDA-MB-435 = test system: MDA-MB-435
MALME-3M melanoma = test system: MALME-3M melanoma
HCC-2998 colon = test system: HCC-2998 colon
DU-145 prostate = test system: DU-145 prostate
SN12C renal = test system: SN12C renal
RXF 393 renal = test system: RXF 393 renal
EKVX NSCLC = test system: EKVX NSCLC
MDA-MB-231 breast = test system: MDA-MB-231 breast
TK-10 renal = test system: TK-10 renal
A498 renal = test system: A498 renal
MCF7 breast = test system: MCF7 breast
COLO 205 colon = test system: COLO 205 colon
SNB-19 CNS = test system: SNB-19 CNS
SF-539 CNS = test system: SF-539 CNS
HL-60(TB) leukemia = test system: HL-60(TB) leukemia

SMILES: Cc1ccc(C(=O)CSc2nnc(-c3c[nH]c4ccccc34)n2-c2ccccc2)cc1
- GI50 (NCI-H522 lung): 16.3 µM
- TGI (NCI-H522 lung): 43.7 µM
- GI50 (SK-MEL-2 melanoma): 30.2 µM
- TGI (SK-MEL-2 melanoma): > 100 µM
- GI50 (SNB-75 CNS): 12.9 µM
- TGI (SNB-75 CNS): 29.6 µM
- GI50 (CAKI-1 renal): 14.9 µM
- TGI (CAKI-1 renal): 29.8 µM
- GI50 (HOP-92 NSCLC): 14.7 µM
- TGI (HOP-92 NSCLC): 34.7 µM
- GI50 (HT29 colon): 15.6 µM
- TGI (HT29 colon): 50.5 µM
- GI50 (RPMI-8226 leukemia): 29.8 µM
- TGI (RPMI-8226 leukemia): > 100 µM
- GI50 (KM12 colon): 36.1 µM
- TGI (KM12 colon): > 100 µM
- GI50 (UACC-257 melanoma): 28.9 µM
- TGI (UACC-257 melanoma): > 100 µM
- GI50 (OVCAR-4 ovarian): 14.5 µM
- TGI (OVCAR-4 ovarian): 41.5 µM
- GI50 (CCRF-CEM leukemia): 54.4 µM
- TGI (CCRF-CEM leukemia): > 100 µM
- GI50 (NCI-H460 lung): 15.2 µM
- TGI (NCI-H460 lung): 31 µM
- GI50 (NCI/ADR-RES ovarian): 11.9 µM
- TGI (NCI/ADR-RES ovarian): 30.2 µM
- GI50 (HS 578T breast): 14.1 µM
- TGI (HS 578T breast): 56.3 µM
- GI50 (NCI-H23 lung): 13.7 µM
- TGI (NCI-H23 lung): 27.5 µM
- GI50 (U251 CNS): 23.6 µM
- TGI (U251 CNS): 65.6 µM
- GI50 (OVCAR-3 ovarian): 18 µM
- TGI (OVCAR-3 ovarian): 43.3 µM
- GI50 (SF-268 CNS): 24.2 µM
- TGI (SF-268 CNS): 78.9 µM
- GI50 (A549 NSCLC): 13.9 µM
- TGI (A549 NSCLC): 48.5 µM
- GI50 (PC-3 prostate): 12.4 µM
- TGI (PC-3 prostate): 37.8 µM
- GI50 (SR leukemia): 42 µM
- TGI (SR leukemia): > 100 µM
- GI50 (SK-MEL-28 melanoma): 19.6 µM
- TGI (SK-MEL-28 melanoma): 52.1 µM
- GI50 (K-562 leukemia): 22.1 µM
- TGI (K-562 leukemia): > 100 µM
- GI50 (BT-549 breast): 25.1 µM
- TGI (BT-549 breast): 46.7 µM
- GI50 (M14 melanoma): 32.1 µM
- TGI (M14 melanoma): > 100 µM
- GI50 (ACHN renal): 13.7 µM
- TGI (ACHN renal): 29.2 µM
- GI50 (T-47D breast): 24.9 µM
- TGI (T-47D breast): > 100 µM
- GI50 (SW-620 colon): 30.3 µM
- TGI (SW-620 colon): > 100 µM
- GI50 (SK-MEL-5 melanoma): 16.5 µM
- TGI (SK-MEL-5 melanoma): 39.1 µM
- GI50 (IGROV1 ovarian): 16.1 µM
- TGI (IGROV1 ovarian): 31.3 µM
- GI50 (HOP-62 NSCLC): 16.1 µM
- TGI (HOP-62 NSCLC): 35.9 µM
- GI50 (786-0 renal): 14.7 µM
- TGI (786-0 renal): 31.2 µM
- GI50 (NCI-H226 lung): 9.22 µM
- TGI (NCI-H226 lung): 26.1 µM
- GI50 (UO-31 renal): 14.2 µM
- TGI (UO-31 renal): 31.4 µM
- GI50 (UACC-62 melanoma): 15.3 µM
- TGI (UACC-62 melanoma): 38.1 µM
- GI50 (MDA-MB-468 breast): 12.8 µM
- TGI (MDA-MB-468 breast): 32.3 µM
- GI50 (HCT-116 colon): 18.7 µM
- TGI (HCT-116 colon): 60.4 µM
- GI50 (SF-295 CNS): 12.6 µM
- TGI (SF-295 CNS): 25.9 µM
- GI50 (HCT-15 colon): 22.6 µM
- TGI (HCT-15 colon): > 100 µM
- GI50 (OVCAR-8 ovarian): 24.5 µM
- TGI (OVCAR-8 ovarian): > 100 µM
- GI50 (OVCAR-5 ovarian): 19.4 µM
- TGI (OVCAR-5 ovarian): 37.2 µM
- GI50 (SK-OV-3 ovarian): 17 µM
- TGI (SK-OV-3 ovarian): 33.1 µM
- GI50 (LOX IMVI melanoma): 14.3 µM
- TGI (LOX IMVI melanoma): 27.3 µM
- GI50 (MOLT-4 leukemia): 21.8 µM
- TGI (MOLT-4 leukemia): > 100 µM
- GI50 (MDA-MB-435): 22.8 µM
- TGI (MDA-MB-435): 65.4 µM
- GI50 (MALME-3M melanoma): 16.2 µM
- TGI (MALME-3M melanoma): 36.2 µM
- GI50 (HCC-2998 colon): 20 µM
- TGI (HCC-2998 colon): 51.7 µM
- GI50 (DU-145 prostate): 44.3 µM
- TGI (DU-145 prostate): > 100 µM
- GI50 (SN12C renal): 19.4 µM
- TGI (SN12C renal): 48.9 µM
- GI50 (RXF 393 renal): 13.6 µM
- TGI (RXF 393 renal): 28.9 µM
- GI50 (EKVX NSCLC): 19 µM
- TGI (EKVX NSCLC): 98.9 µM
- GI50 (MDA-MB-231 breast): 15.4 µM
- TGI (MDA-MB-231 breast): 32.6 µM
- GI50 (TK-10 renal): 23.2 µM
- TGI (TK-10 renal): 44.4 µM
- GI50 (A498 renal): 22.1 µM
- TGI (A498 renal): 69.4 µM
- GI50 (MCF7 breast): 15.7 µM
- TGI (MCF7 breast): 39.2 µM
- GI50 (COLO 205 colon): 34.4 µM
- TGI (COLO 205 colon): > 100 µM
- GI50 (SNB-19 CNS): 15.8 µM
- TGI (SNB-19 CNS): 34.5 µM
- GI50 (SF-539 CNS): 15 µM
- TGI (SF-539 CNS): 28.5 µM
- GI50 (HL-60(TB) leukemia): 30.8 µM
- TGI (HL-60(TB) leukemia): > 100 µM
